For assay [1], the system named is kainate receptors. To be noted: Narita et al. 1993; cited from earlier work.
Assay [2] has as its system Arbor Acres broilers. Briefly: Fattening of broilers with feed containing GABA (day 21 to day 41 after birth). Type of assay: in vivo. As to conditions: for increase in the body weight per 1 kg of feed during day 21 to day 41 after birth: compared to 0% group (p<0.05), FIG. 2; for increase in the body weight from day 21 to day 41 after birth: FIG. 1.
Assay [3] deals with ventromedial nucleus of hypothalamus (VMH) of rat. As to conditions: VMH stimulated by water absorbent polymers, Yokawa et al. 1990; cited from earlier work.

On to `O=C1N=c2cc([N+](=O)[O-])c([N+](=O)[O-])cc2=NC1=O` [DNQX, 6,7-dinitroquinoxaline-2,3-dione], for which the “inhibition of kainate-induced running activity in rat” value in assay [1] was “inhibited”.

For `NCCCC(=O)O` [GABA, γ-aminobutyric acid], the “increase in the body weight per 1 kg of feed during day 21 to day 41 after birth” value in assay [2] (0.5% GABA additive rate), in assay [2] (1% GABA additive rate) and in assay [2] (3% GABA additive rate) was “significant increase” throughout. Besides, the “increase in the body weight from day 21 to day 41 after birth” value in assay [2] (0.5% additive rate of GABA in feed) is “tendency of increase was also observed at 0.5% but the significant difference was not clearly observed”; in assay [2] (1% additive rate of GABA in feed) it was “maximum increase”. In addition, the “induction of rat running activity caused by polymers” value in assay [3] is recorded as “inhibited”.

As for `C=C(C)[C@H]1CN[C@H](C(=O)O)[C@H]1CC(=O)O` [kainate], the “running activity in rat” value in assay [1] is recorded as “induced”.

The record behind these values is patent publication US20040219189A1 (priority 2001, published 2004).
